`CCCn1cc2c(C3C(=O)Nc4ccc(Br)cc43)nc(NCCCN(C)C)nc2n1` (stereo unspecified) gave a melting point of 286 to 290 °C. In the case of `Cc1nc2c(N)nc3ccc(OCc4ccccc4)cc3c2n1CCCCCS(C)(=O)=O`, the melting point is reported as 215 to 217 °C. In the case of `CC(O)CN1C(=O)N(CN2C(=O)N(CC(C)O)C(=O)C2(C)C)C(C)(C)C1=O` (stereo unspecified), the melting point is reported as 131 to 133 °C. `CCc1cc(CC)c(-c2c(O)c(C)nn(C)c2=O)c(CC)c1Cl` showed a melting point of 225 to 226 °C. `O=[N+]([O-])c1nccn1C1CCCCC1O` (stereo unspecified) showed a melting point of 141 °C. Compound `CCOC(=O)c1c(C(F)(F)F)nc(C(F)F)c(C(=O)OC)c1N(C)C` has a melting point of 80 to 81 °C. `CC(=O)NC(=S)NCC1CC2c3cccc4[nH]cc(c34)CC2N(C)C1` (stereo unspecified) showed a melting point of 204 to 205 °C. `Cc1nn2c(c1C(N)=O)NCC=C2c1cc(Cl)ccc1Cl` showed a melting point of 93 to 96 °C. `O=C(O)C1CCCN(C(=O)c2cccc(C(=O)C3CCC4(CCNCC4)CC3)c2)C1` (stereo unspecified) gave a melting point of 146 to 148 °C. `OCc1ccc(CO)c(Br)c1` gave a melting point of 104 °C. `COC(=O)Cn1c(C(=O)NC(N)=S)c(C)c2cc(C)ccc21` showed a melting point of 210 to 212 °C. `CNCc1cc2cc(Nc3nc(N)n(C(=O)c4cccc(C)c4)n3)ccc2o1` gave a melting point of 128 to 131 °C. `COc1ccc(-c2ccccc2)cc1NC(=S)c1ncc[nH]1` gave a melting point of 223 to 226 °C. Compound `O=C(OCc1ccccc1)c1cc2c(=O)n(Cc3ccccc3)c(=O)[nH]c2s1` has a melting point of 195 to 197 °C. With `CC(C)(C)OC(=O)N1CCCN(c2nc3ccccc3[nH]2)CC1` the melting point was 225 to 226 °C. `O=C1C=c2c(c3c4ccccc4[nH]c3c3[nH]c4ccccc4c23)=N1` gave a melting point greater than 320 °C. `COc1ccc2c(c1)c(N1CCN(C#N)CC1)nn2S(=O)(=O)c1ccccc1` showed a melting point of 171 to 173 °C. `CC(C)=CCN(CC=C(C)C)Cc1noc(-c2ncn3c2[C@@H]2CCCN2C(=O)c2c(Cl)cccc2-3)n1` gave a melting point of 137 to 140 °C. Compound `C[C@H]1Oc2ccc(F)cc2NC(=O)[C@H]1N` has a melting point of 173 to 177 °C. Compound `O=C(Nc1cccc(-c2ccccc2)c1)Nc1ccccc1CCO` has a melting point of 196 to 198 °C. `CCCCCCCC(=O)NCCCCOS(C)(=O)=O` gave a melting point of 59 to 60 °C. `CN(C)C=C(C=CC#N)c1ccccc1` showed a melting point of 77 to 83 °C. Compound `Nc1nc(=O)n(COCc2ccccc2)cc1F` has a melting point of 213 to 217 °C. `COc1ccc2oc(N(C=O)[C@@H](Cc3ccccn3)c3ncc(-c4ccc(N5CCOCC5)cc4)n3C)cc2c1` gave a melting point of 122 to 124 °C. In the case of `CCOC(=O)C1=C[C@@H](OC(CC)CC)[C@H](NC(C)=O)[C@@H](NC(=O)OC(C)(C)C)C1`, the melting point is reported as 144 to 145 °C. `O=P(O)(O)CNC1CCCCC1` showed a melting point of 279 to 284 °C. Work on `CCC(C(=O)c1ccc(Cl)cc1)n1ncn(-c2ccc(N3CCN(c4ccc(O)cc4)CC3)cn2)c1=O` (stereo unspecified) yielded a melting point of 186 °C. With `CCN(CCCP(=O)(O)O)S(=O)(=O)C(F)(F)C(F)(F)C(F)(F)C(F)(F)F` the melting point was 138 to 140 °C. For `CC(CCC(=O)O)CC(C)CC(C)C(=O)C=C(O)C(C)CC(C)CC=CC(C)C(O)C(C)C(O)CC1CCC(C)(C2CCC(C)(C(C)O)O2)O1` (stereo unspecified), the melting point was 203 °C. `O=C(CSc1ccc(C2=NCC(c3cc(Cl)cc(Cl)c3)(C(F)(F)F)C2)cc1Cl)NCC(F)(F)F` (stereo unspecified) showed a melting point of 189 °C. `O=c1nc(-c2ccccn2)sc2ncccc12` showed a melting point of 235 °C. With `CCCCc1sc(C(=O)O)c2c1-c1nn(C)cc1CC2` the melting point was 244 to 245 °C. In the case of `CCOc1cc2c(c3c1[nH]c1ccc(O)cc13)C(=O)N(CCN(C)C)C2=O`, the melting point is reported as 260 to 261 °C. For `COC(=O)C1=C(C)NC(C)=C(C(=O)OCCBr)C1c1cccc(Cl)c1Cl` (stereo unspecified), the melting point was 180 to 182 °C. Work on `COc1c(Cl)c(OC)c2cnoc2c1Cl` yielded a melting point of 138 to 140 °C. Compound `CC(C)Sc1sc(-c2nnn[nH]2)c2c1C(=O)CC(C)(C)C2` has a melting point of 228 to 230 °C. `CC(C)(C)OC(=O)CNS(=O)(=O)c1ccc(N2CCC(NC[C@H](O)c3ccc(O)c(NS(C)(=O)=O)c3)CC2)cc1` showed a melting point of 113 to 115 °C. Work on `CN1CC(=O)N2c3ccccc3Cn3c(cc4ccccc43)C2C1=O` (stereo unspecified) yielded a melting point of 188 to 189 °C. Work on `CN(C)C(=O)C1CCCc2c1c1ccccc1n2Cc1ccccc1` (stereo unspecified) yielded a melting point of 208 to 210 °C. Work on `Cc1c(O)ccc2oc(-c3ccc(O)cc3)cc12` yielded a melting point of 221 to 222 °C. Compound `CC(=O)NCC12CC(c3ccccc31)c1ccccc12` has a melting point of 184 to 186 °C. Work on `CCOC(=O)C(=NOCCBr)c1csc(N)n1` yielded a melting point of 111 to 114 °C. With `COc1ccccc1COc1nc2c(oc3ccccc32)c(-c2ccc3c(c2)OCCO3)c1C(=O)O` the melting point was 179 °C. Compound `CC(C)(C)C(CS(=O)(=O)c1ccc(Oc2ccc(OC(F)(F)F)cc2)cc1)N(O)C=O` (stereo unspecified) has a melting point of 160 °C. In the case of `O=C(c1ccc(F)cc1)C1CCN(CCCC2(c3ccc(F)cc3)OCCO2)CC1`, the melting point is reported as 62 to 64 °C. Work on `CCCCOc1c(-c2cc(C=CC(=O)O)ccc2O)cc(C(C)(C)C)cc1C(C)(C)C` yielded a melting point of 92 to 94 °C. Work on `COC(=O)Nc1nccc(Oc2ccc3c(C(=O)Nc4ccc(F)c(C(F)(F)F)c4)cccc3c2)n1` yielded a melting point of 204 to 205 °C. With `Cc1sc(C2=NOC(c3cc(Cl)cc(Cl)c3)(C(F)(F)F)C2)cc1Br` (stereo unspecified) the melting point was 110 to 112 °C. With `c1ccc(Cn2ccc3nnc4ccccc4c32)cc1` the melting point was 190 to 192 °C. For `N#CCN1CCN(c2n[nH]c3ccccc23)CC1`, the melting point was 121 to 123 °C. With `CN(C)c1cc(N)c(C(=O)O)cc1[N+](=O)[O-]` the melting point was 240 to 250 °C. Compound `Nc1c(-c2cc(Cl)ccc2O)c2cc(Cl)c(C(F)(F)F)cc2[nH]c1=O` has a melting point of 245 to 246 °C. With `C=CCOC(=O)c1ccc(-c2nn(-c3ccc(C(=O)ON4C(=O)CCC4=O)cc3)c3ccccc23)cc1` the melting point was 178 °C. For `Cc1c(F)cc(C(=O)OC(C)(C)C)cc1I`, the melting point was 77 to 80 °C. In the case of `O=C(Cl)N1CCCCCCCCCCCNC1=O`, the melting point is reported as 65 to 67 °C. Compound `CCCCCCCCCCCCCCC(F)CC(NC(C)=O)(C(=O)OCC)C(=O)OCC` (stereo unspecified) has a melting point of 71 to 73 °C. With `CCCNC(=O)Nc1ccc(SC)cc1C(=O)NCC1CCN(C(c2ccccc2)c2ccccc2)CC1` the melting point was 196 to 198 °C. `CCOc1ccc(C(C)=O)cc1S(=O)(=O)NC(=O)Nc1nc(OC)cc(OC)n1` showed a melting point of 192 to 193 °C. `C#CCN1CCc2cc(OC)c(O)c3c2C1Cc1cc(OC)c(OC)cc1-3` (stereo unspecified) showed a melting point of 135 to 150 °C. With `COc1c(N2C[C@@H](N)[C@@H](C)C2)c(F)cc2c(=O)c(C(=O)O)cn(C3CC3)c12` (relative stereo) the melting point was 192 to 194 °C. With `CCCCCCCCCCCC(=O)N[C@H](CC(=O)c1ccc2ccccc2c1)C(=O)OCC` the melting point was 75 to 76 °C. With `O=[N+]([O-])c1cc2c(Nc3ccc(F)c(Cl)c3)ncnc2cc1OCC1CC1` the melting point was 204 °C. `Clc1ccc(-c2nc(I)c[nH]2)cc1Cl` gave a melting point of 206 to 207 °C. For `COc1cc(COc2nn(Cc3ccccc3)cc2C=O)ccc1OCc1nc(-c2ccccc2)oc1C`, the melting point was 151 to 152 °C. For `COc1cc2ncc(C#N)c(Nc3cc(C)c(C)cc3N)c2cc1OC`, the melting point was 260 to 262 °C. `c1cnc2c(c1)N(c1ccc3[nH]cc(C4CCNCC4)c3c1)CN2` showed a melting point of 260 to 268 °C. Compound `O=C1CC(=CCl)c2c(O)cc(O)cc2O1` has a melting point of 228 to 230 °C. Compound `CCCC1=C(C(=O)OCC)C(c2ccccc2N)c2c[nH]nc2N1` (stereo unspecified) has a melting point of 179 °C. For `CN(C)c1ccc(N2C(=O)C3Cc4[nH]cnc4CN3C2=S)cc1` (stereo unspecified), the melting point was 185 to 200 °C. `COCCOCCC1CCCCCc2c1oc(=O)c(C(c1ccccc1)C1CC1)c2O` (stereo unspecified) showed a melting point of 129 to 133 °C. Compound `O=CN(O)C(CCc1ccccc1)CS(=O)(=O)N1CCN(c2cc(Cl)ncn2)CC1` (stereo unspecified) has a melting point of 155 to 157 °C. For `COC1=NS(=O)N=C1OC`, the melting point was 137 to 139 °C. With `CC1(C)COc2ccc(C[C@H](N)[C@H](O)c3cccc(Cl)c3)cc21` (racemic) the melting point was 83 to 86 °C. Compound `O=C1N(N2CCOCC2)c2ccccc2C1(Cc1ccnc(F)c1)c1ccccc1` (stereo unspecified) has a melting point of 170 to 172 °C. In the case of `COc1cc(NCCCN(C)Cc2ccccc2)ccc1C(N)=O`, the melting point is reported as 116 to 118 °C. With `COc1cccc(C=O)c1OCc1cccc2ccccc12` the melting point was 98 to 99 °C. In the case of `COC1=C(OC)C(=O)C(CCCCCC[C@H]2CC[C@H](O)CC2)=C(C)C1=O`, the melting point is reported as 33.5 to 35.5 °C. `CC(F)c1nc2ncnn2c(NC2CCC(C(C)(C)C)CC2)c1Cl` (stereo unspecified) showed a melting point of 138 to 139 °C. Compound `C#CCOCCn1c(CN2CCCN(C)CC2)nc2ccccc21` has a melting point of 133 to 136 °C. `CN1CN(C2CCCC2)CN(c2nc3c(s2)C(=O)CC(C)(C)C3)C1=O` showed a melting point of 181 to 183 °C. `CC1=NN(C(=O)NS(=O)(=O)c2ncccc2C(F)(F)F)C(C)(c2ccccc2)C1` (stereo unspecified) gave a melting point of 152 to 153 °C. With `Cc1ccc(-c2nc(OC(C)C)c(Br)c(OC(C)C)n2)cc1` the melting point was 74 to 75 °C. `O=Cc1cn(Cc2ccc3cc(OCc4ccccc4)ccc3c2)cc1-c1ccccc1` gave a melting point of 140 to 141 °C. Work on `Cc1ccc2c(=O)c3c(oc2c1)CCC(C#N)C3` (stereo unspecified) yielded a melting point of 176 to 178 °C. With `CC1Oc2ccccc2CC1NNc1ncnc2c1ncn2C1OC(CO)C(O)C1O` (stereo unspecified) the melting point was 90 to 92 °C. For `CCOC(=O)c1ccc2nc(C)n(Cc3ccccc3Cl)c2c1`, the melting point was 126 to 127 °C. In the case of `COc1cccc(C=C2SC(=S)NC2=O)c1OC`, the melting point is reported as 268 to 269 °C. Compound `CN1C(=O)CC[C@]2(C)c3ccc(-c4ccc(O)c(F)c4)cc3CC[C@@H]12` has a melting point greater than 240 °C. `Cc1cc([N+](=O)[O-])ccc1N1CCOCC1` showed a melting point of 147 to 150 °C. In the case of `CC(=O)c1cc(C(C)=O)c(OCCCCC#N)cc1O`, the melting point is reported as 105 to 106 °C. `Clc1cc(OC(Cl)(Cl)Cl)nc(Cl)n1` showed a melting point of 55 to 56 °C. For `COC(=O)c1ccc(OC)cc1S(=O)(=O)Cl`, the melting point was 69 to 72 °C. With `O=C1Nc2ccc(C(O)c3ccc(Cl)cc3)cc2C(c2cccc(Cl)c2)N1` (stereo unspecified) the melting point was 231 °C. With `CC(C)Oc1cc(-n2c(=O)[nH]c(C(F)(F)C(F)(F)F)c(F)c2=O)c(F)cc1Cl` the melting point was 160 to 162 °C. Work on `CCc1nn2ccccc2c1[N+](=O)[O-]` yielded a melting point of 118 to 121 °C. For `CCOc1nn(C(=O)NS(=O)(=O)c2c(C)cccc2OC(C)C)c(=O)n1C`, the melting point was 155 °C. For `CC(C(=O)O)c1ccc2c(c1)CCc1ccccc1C2=O` (stereo unspecified), the melting point was 122 °C. Work on `NC(=O)CCC1CCC(=O)N1` (stereo unspecified) yielded a melting point of 178 °C. Work on `COc1ccc(C(Cc2ccc(C(N)=O)cc2)c2ccccc2)cc1OC1CCCC1` (stereo unspecified) yielded a melting point of 73 to 75 °C. Work on `O=C1C=C(NC(=O)C(=O)c2cn(Cc3ccc(Cl)cc3)c3ccccc23)CO1` yielded a melting point of 253 to 255 °C. With `CCCCCCn1nnc(NC(=O)Nc2c(C(C)C)cccc2C(C)C)n1` the melting point was 154 to 156 °C.

Source: a melting point compilation (Tetko et al.; mined from patent text by program, amines drawn as free bases though some values may be those of a salt)
